Data set [1] in a line: Release/diffusion using Franz diffusion cell with artificial membrane. The format is in vitro ADME. The settings on record: control, OA only, within 4 hours.
For data set [2] the following is noted: cited from earlier work.
The nature of data set [3]: Solubility in water and solvents. The format is physicochemical.
The conditions of data set [4]: 20° C., reported value; cited from earlier work.
The nature of data set [5]: Thermogravimetric analysis (thermal stability). It is filed as physicochemical. The note with it: 250-380° C., argon atmosphere.
Experimental: The thermal stability of the γ-CD. γ-CDP and γ-CDP has been investigated (FIG. 4) using thermogravimetric analysis which was carried out in argon atmosphere. […] This weight loss may be associated to the decomposition of the ester functional groups attaching the aliphatic chains to the CD.
Thermogravimetric (TGA, Netzsch) was carried out from room temperature to 400° C. at a ramping rate of 5° C. min−1 under an Ar flow.

SMILES strings stand for the structures. Converted amounts (≈) assume the structure as drawn. Like-named read-outs stand apart in the source and are kept apart here.

For the compound `CN(C)c1ccc2cc3ccc(N(C)C)cc3nc2c1.Cl` [Orange Acridine hydrochloride (OA), Orange Acridine hydrochloride], the “diffusion through the membrane” value in data set [1] was 92%. Besides, in data set [2] (23° C.), the solubility in water is 6000 µg/mL.

For `O=C1O[C@H]([C@@H](O)CO)C([O-])=C1OP(=O)([O-])[O-].O=C1O[C@H]([C@@H](O)CO)C([O-])=C1OP(=O)([O-])[O-].[Mg+2].[Mg+2].[Mg+2]` [magnesium ascorbyl phosphate (MgAsc), magnesium ascorbyl phosphate], the solubility in water in data set [2] is 8100 µg/mL.

Turning to `NC(=O)c1cccnc1` [niacinamide], in data set [3], the “solubility in EtOAc upon addition of the CDOs” value is “increases significantly”. Moreover, the “solubility in EtOAc” value in data set [3] (alone) is “low solubility”.

Take `CCCCCCCC/C=C\CCCCCCCC(=O)O` [oleic acid]: the viscosity in data set [4] is given as 0.0348 Pa·s.

Turning to `Oc1ccc(C=Cc2cc(O)cc(O)c2)cc1` [resveratrol], in data set [2], the solubility in water is 50 µg/mL (≈ 219 µM).

For the compound `Cc1c(C)c2c(c(C)c1O)CC[C@@](C)(CCC[C@H](C)CCC[C@H](C)CCCC(C)C)O2` [α-tocopherol], the viscosity in data set [4] is on record as 4.6 Pa·s.

In data set [5], `OC[C@H]1O[C@@H]2O[C@H]3[C@H](O)[C@@H](O)[C@@H](O[C@H]4[C@H](O)[C@@H](O)[C@@H](O[C@H]5[C@H](O)[C@@H](O)[C@@H](O[C@H]6[C@H](O)[C@@H](O)[C@@H](O[C@H]7[C@H](O)[C@@H](O)[C@@H](O[C@H]8[C@H](O)[C@@H](O)[C@@H](O[C@H]9[C@H](O)[C@@H](O)[C@@H](O[C@H]1[C@H](O)[C@H]2O)O[C@@H]9CO)O[C@@H]8CO)O[C@@H]7CO)O[C@@H]6CO)O[C@@H]5CO)O[C@@H]4CO)O[C@@H]3CO` [γ-CD, γ-Cyclodextrin] gave a weight loss of 60%.

What is called viscosity is the internal friction of a fluid under shear.

The record behind these values is US20240115709A1, “ASSEMBLY OF ORGANIC SUPRAMOLECULAR VESSELS FOR CONTROLLED DRUG RELEASE” (NOBLE PANACEA LABS, INC., priority 2021, published 2024).
